Reference: patent US11208396B2, “Oxime compounds as agonists of the muscarinic M1 and/or M4 receptor” (Heptares Therapeutics Limited, priority 2015, dated 2021)

Tests used:
Type in all cases: cell-based
[1] = biological target: T1, human muscarinic M1 receptor (Homo sapiens, UniProt P11229); experiment: Alphascreen Surefire phospho-ERK1/2 functional assay, M1; details: for % Emax cf. ACh, M1 / EC50: CHO cells stably expressing human M1; for % Emax cf. ACh, M1 / Emax: Emax compared with ACh; for EC50: agonist 5 min, 37° C., read-out: pEC50 M1 (converted); for Emax: CHO, read-out: % Emax cf. ACh, M1, CHO cells stably expressing human M1
T1 sequence (P11229 1-460): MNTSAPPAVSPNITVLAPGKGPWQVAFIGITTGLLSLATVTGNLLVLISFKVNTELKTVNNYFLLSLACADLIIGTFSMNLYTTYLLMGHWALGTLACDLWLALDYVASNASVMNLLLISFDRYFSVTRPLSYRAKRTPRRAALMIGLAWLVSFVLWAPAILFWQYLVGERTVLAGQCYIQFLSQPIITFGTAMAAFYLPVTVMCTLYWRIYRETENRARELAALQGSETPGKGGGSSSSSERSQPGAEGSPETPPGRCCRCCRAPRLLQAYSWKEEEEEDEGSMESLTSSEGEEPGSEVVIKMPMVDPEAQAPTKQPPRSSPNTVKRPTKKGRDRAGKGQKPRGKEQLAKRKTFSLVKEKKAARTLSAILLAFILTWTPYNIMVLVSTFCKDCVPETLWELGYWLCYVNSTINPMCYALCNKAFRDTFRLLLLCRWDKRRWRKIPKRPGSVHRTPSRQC
Protocol: (§1) ERK1/2 phosphorylation is a downstream consequence of both Gq/11 and Gi/o protein coupled receptor activation, making it highly suitable for the assessment of M1, M3 (Gq/11 coupled) and M2, M4 receptors (Gi/o coupled), rather than using different assay formats for different receptor subtypes. CHO cells stably expressing the human muscarinic M1, M2, M3 or M4 receptor were plated (25K/well) onto 96-well tissue culture plates in MEM-alpha+10% dialysed FBS. Once adhered, cells were serum-starved overnight. Agonist stimulation was performed by the addition of 5 μL agonist to the cells for 5 min (37° C.). Media was removed and 50 μL of lysis buffer added. After 15 min, a 4 μL sample was transferred to 384-well plate and 7 μL of detection mixture added. Plates were incubated for 2 h with gentle agitation in the dark and then read on a PHERAstar plate reader.
(§2) pEC50 and Emax figures were calculated from the resulting data for each receptor subtype.

[2] = biological target: T2, human muscarinic M2 receptor (Homo sapiens, UniProt P08172); experiment: Alphascreen Surefire phospho-ERK1/2 functional assay, M2; details: for % Emax cf. ACh, M2 / EC50 / pEC50 M2: CHO cells stably expressing human M2; for % Emax cf. ACh, M2 / Emax: Emax compared with ACh; for EC50 / pEC50 M2: agonist 5 min, 37° C.; for EC50: read-out: pEC50 M2 (converted); for Emax: CHO, read-out: % Emax cf. ACh, M2, CHO cells stably expressing human M2
T2 sequence (P08172 1-466): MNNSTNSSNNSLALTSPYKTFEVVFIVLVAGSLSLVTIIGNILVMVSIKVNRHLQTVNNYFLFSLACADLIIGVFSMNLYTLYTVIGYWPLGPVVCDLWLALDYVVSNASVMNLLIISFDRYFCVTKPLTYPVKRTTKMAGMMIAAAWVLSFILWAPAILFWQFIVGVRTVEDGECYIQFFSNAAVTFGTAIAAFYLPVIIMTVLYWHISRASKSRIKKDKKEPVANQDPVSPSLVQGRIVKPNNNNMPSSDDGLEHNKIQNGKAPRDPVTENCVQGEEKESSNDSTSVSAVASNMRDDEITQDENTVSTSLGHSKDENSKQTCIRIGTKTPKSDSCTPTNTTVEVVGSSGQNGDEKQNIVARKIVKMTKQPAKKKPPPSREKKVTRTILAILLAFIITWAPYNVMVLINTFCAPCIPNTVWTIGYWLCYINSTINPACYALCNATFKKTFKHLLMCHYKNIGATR
Protocol: as §1, §2

[3] = biological target: T3, human muscarinic M3 receptor (Homo sapiens, UniProt P20309); experiment: Alphascreen Surefire phospho-ERK1/2 functional assay, M3; details: for % Emax cf. ACh, M3 / EC50 / pEC50 M3: CHO cells stably expressing human M3; for % Emax cf. ACh, M3 / Emax: Emax compared with ACh; for EC50 / pEC50 M3: agonist 5 min, 37° C.; for EC50: read-out: pEC50 M3 (converted); for Emax: CHO, read-out: % Emax cf. ACh, M3, CHO cells stably expressing human M3
T3 construct: expressed in transfected cells
Protocol: as §1, §2

[4] = biological target: T4, human muscarinic M4 receptor (Homo sapiens, UniProt P08173); experiment: Alphascreen Surefire phospho-ERK1/2 functional assay, M4; details: for % Emax cf. ACh, M4 / Emax: Emax compared with ACh; for EC50: read-out: pEC50 M4 (converted); for Emax: CHO, read-out: % Emax cf. ACh, M4, CHO cells stably expressing human M4
T4 construct: expressed in transfected cells
T4 sequence (P08173 1-479): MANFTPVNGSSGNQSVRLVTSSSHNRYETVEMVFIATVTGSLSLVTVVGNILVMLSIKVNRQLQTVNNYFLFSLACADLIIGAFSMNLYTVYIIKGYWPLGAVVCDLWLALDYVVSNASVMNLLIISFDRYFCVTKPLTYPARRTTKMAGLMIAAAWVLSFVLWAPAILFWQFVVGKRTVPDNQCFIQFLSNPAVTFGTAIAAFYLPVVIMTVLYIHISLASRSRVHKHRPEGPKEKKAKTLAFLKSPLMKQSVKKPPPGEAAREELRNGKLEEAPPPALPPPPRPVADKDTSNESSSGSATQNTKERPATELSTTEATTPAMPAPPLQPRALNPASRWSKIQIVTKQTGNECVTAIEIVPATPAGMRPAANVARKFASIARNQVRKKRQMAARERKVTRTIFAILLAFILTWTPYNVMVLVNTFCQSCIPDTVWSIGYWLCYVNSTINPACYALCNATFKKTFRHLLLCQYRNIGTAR
Protocol: as §1, §2

[5] = CHO cells stably expressing human M4
[6] = CHO cells stably expressing human M4, agonist 5 min, 37° C.

T3 sequence (P20309 whole entry): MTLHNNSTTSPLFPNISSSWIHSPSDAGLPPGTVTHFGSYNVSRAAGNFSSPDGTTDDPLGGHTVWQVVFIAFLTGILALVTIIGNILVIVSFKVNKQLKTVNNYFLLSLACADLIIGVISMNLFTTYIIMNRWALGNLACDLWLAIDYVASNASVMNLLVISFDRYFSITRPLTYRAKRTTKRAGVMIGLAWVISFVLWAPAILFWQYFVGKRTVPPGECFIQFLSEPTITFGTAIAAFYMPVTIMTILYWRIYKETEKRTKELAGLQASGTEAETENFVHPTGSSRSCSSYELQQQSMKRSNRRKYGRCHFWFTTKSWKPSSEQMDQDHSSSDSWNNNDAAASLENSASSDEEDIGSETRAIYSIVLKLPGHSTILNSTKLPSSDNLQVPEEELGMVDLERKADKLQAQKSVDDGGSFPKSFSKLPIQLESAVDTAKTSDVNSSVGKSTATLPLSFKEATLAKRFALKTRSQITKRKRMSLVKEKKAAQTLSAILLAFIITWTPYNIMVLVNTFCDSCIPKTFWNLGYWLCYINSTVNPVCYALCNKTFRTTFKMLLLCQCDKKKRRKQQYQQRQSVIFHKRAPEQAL

SMILES	% Emax cf. ACh, M1 [1] [%]	EC50 [1] [nM]	% Emax cf. ACh, M2 [2] [%]	EC50 [2] [nM]	% Emax cf. ACh, M3 [3] [%]	EC50 [3] [nM]	% Emax cf. ACh, M4 [4, 5] [%]	EC50 [4, 6] [nM]	pEC50 M2 [2]	pEC50 M3 [3]	Emax [1] [%]	Emax [2] [%]	Emax [3] [%]	Emax [4] [%]	pEC50 M4 [4, 6]
CCOC(=O)N1CCCC(N2CCC(C(CC)=NOC(C)C)CC2)CC1 (single isomer, unassigned) [1-12 Isomer 1 (racemic)]	98	100	5	> 20000	6	> 20000	80	63.1	–	–	–	–	–	–	–
CCOC(=O)N1CCCC(N2CCC(C(CC)=NOC(C)C)CC2)CC1 (single isomer, unassigned) [1-12 Isomer 2 (racemic)]	72	316	2	–	1	–	101	25.1	< 4.7	< 4.7	–	–	–	–	–
CCOC(=O)N1CCC2(CC(N3CCC(C(C)=NOC)CC3)C2)C1 (single isomer, unassigned) [2-1 Mixture of isomers 2]	–	200	–	> 20000	–	> 20000	–	63.1	–	–	89	71	9	68	–
CCOC(=O)N1CCC2(CC(N3CCC(C(CC)=NOC)CC3)C2)C1 (single isomer, unassigned) [2-2 Isomer 3]	5	> 20000	7	> 20000	2	> 20000	67	50.1	–	–	–	–	–	–	–
CCOC(=O)N1CCC2(CC(N3CCC(C(CC)=NOC)CC3)C2)C1 (single isomer, unassigned) [2-2 Isomer 4]	59	200	69	–	18	–	105	20	< 4.7	< 4.7	–	–	–	–	–
CCCC(=NOC)C1CCN(C2CC3(CCN(C(=O)OCC)C3)C2)CC1 (single isomer, unassigned) [2-3 Isomer 4]	–	158	–	> 20000	–	> 20000	–	25.1	–	–	87	15	7	77	–
CCOC(=O)N1CCC[C@H](N2CCC(C(C)=NOC)CC2)CC1 (single isomer, unassigned) [(S)-1-1 Isomer 2]	49	501	–	> 20000	–	> 20000	62	–	–	–	–	7	0	–	6.7
CCOC(=O)N1CCC[C@H](N2CCC(C(CC)=NOC)CC2)CC1 (single isomer, unassigned) [(S)-1-2 Isomer 1]	–	> 20000	11	> 20000	–	> 20000	–	63.1	–	–	21	–	9	81	–
CCOC(=O)N1CCC[C@H](N2CCC(C(CC)=NOC)CC2)CC1 (single isomer, unassigned) [(S)-1-2 Isomer 2]	36	501	5	–	7	–	81	50.1	< 4.7	< 4.7	–	–	–	–	–
CCCC(=NOC)C1CCN([C@H]2CCCN(C(=O)OCC)CC2)CC1 (single isomer, unassigned) [(S)-1-3 Isomer 2]	–	251	–	> 20000	–	> 20000	–	25.1	–	–	93	7	0	126	–
